Source: patent US5962502A, “Polyamidic acid derivatives with antigastrin activity, a method for their preparation, and their pharmaceutical use” (priority 1993, dated 1999)
pIC50: −log10 of the molar value. One block for each compound: values may come before it.

Tests used:
mouse = test: Black and White Box test in the mouse (anxiolytic activity); assay type: in vivo; conditions: for LIGHT TIME TOTAL TIME / LIGHT-DARK MOVEMENTS / MOV. DARK % TOTAL MOV. / TOTAL MOVEMENTS: 5 minutes; for anxiolytic activity, result in words: Black and White Box test, IP; for increase in the number of light-dark movements in comparison with the controls: summary over doses
Experimental: It has recently been postulated that the central CCK-B receptor has an important role in anxiety. This is in accordance with studies also carried out in man, which have shown that the central CCK-B mechanisms have an important function in the mediation of panic attacks [Bradwejn, H. et al; J. Psychopharmacology 6 (1992), 345]. […] This experimental model, which was carried out according to Costall et al [Pharm. Biochem. Behav. 32 (1989), 777-785], used a box with dimensions of 45×21×21(h) cm divided into 2 compartments which communicated with one another through a 13×5 cm hole. The smaller compartment (1/3 of the total area) had black walls, whereas the larger had transparent walls and was illuminated by a lamp which was placed 20 cm above the box and supplied light at 20W. Under the floor there was an activity meter which recorded the movements performed by the animal in the individual compartments. The experiment was started by placing the animal in the centre of the illuminated box; as well as movements, the time which the animal spent in the dark and in the light areas and the number of movements between the 2 compartments were then recorded for 5 minutes. A control animal generally preferred to stay in the dark compartment where it felt better protected from an unusual environmental situation which put it in a state of anxiety. In this experimental model, a compound having anxiolytic activity decreased the % of movements into the dark in comparison with the total movements, increased the movements between the two light-dark compartments, and increased the % of time spent in the light in comparison with the total time.
The results obtained are shown in Table 7, where the activities obtained with compounds 9, 21 and 51 are given, tested in comparison with diazepam.

[1] = molecular target: T1, gastrin receptors or type-B cholecystokinin (CCK-B) receptors (Oryctolagus cuniculus, UniProt P46627); test: Inhibition of the gastrin-induced increase of cytosolic calcium in rabbit gastric mucous-membrane cells (Fura 2); assay type: cell-based; conditions: for Ratio IC50 Binding cortex / IC50 (gastric mucous cells): binding values taken from Table 3; for CCK-B-antagonistic activity IC50 (II): data taken from Table 4 (rabbit gastric mucous cells), reprinted in Table 6; for IC50, inhibition of the increase of cytosolic calcium: rabbit gastric mucous cells enriched in parietal cells, gastrin 5×10^-8
T1 construct: Rabbit gastric mucous-membrane cells were prepared by conventional techniques; endogenous in cells; host or cells: freshly isolated rabbit gastric mucosal cells, enriched by elutriation to about 70% parietal cells
T1 sequence (P46627 1-452): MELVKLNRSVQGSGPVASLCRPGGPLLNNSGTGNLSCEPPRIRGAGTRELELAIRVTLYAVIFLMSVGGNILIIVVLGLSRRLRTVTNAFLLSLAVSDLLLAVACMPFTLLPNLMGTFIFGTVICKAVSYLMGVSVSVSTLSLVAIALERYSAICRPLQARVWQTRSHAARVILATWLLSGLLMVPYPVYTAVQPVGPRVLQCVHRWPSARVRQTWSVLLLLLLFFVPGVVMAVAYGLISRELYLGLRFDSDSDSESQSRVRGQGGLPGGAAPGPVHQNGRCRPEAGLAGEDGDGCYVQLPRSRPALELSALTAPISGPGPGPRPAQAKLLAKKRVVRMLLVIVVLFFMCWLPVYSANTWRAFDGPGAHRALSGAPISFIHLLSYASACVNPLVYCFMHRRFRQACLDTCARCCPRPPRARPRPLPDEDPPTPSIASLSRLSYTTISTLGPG
Method in brief: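 Enzymatically dispersed (collagenase/pronase) rabbit gastric mucosal cells, loaded with Fura 2, were suspended at 0.8×10^6/ml in HEPES-buffered saline at 37 °C with stirring. Gastrin-induced cytosolic Ca²⁺ rise was measured with and without compound by fluorescence (excitation 340/380 nm, emission 505 nm).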

central CCK-B receptor = molecular target: T2, central CCK-B receptor (Cavia porcellus, UniProt H0VZC5); test: Inhibition of the binding of [3-H][N-methyl-N-leucine]CCK-8 to guinea-pig cortical membranes; conditions: for times more active than the corresponding diastereoisomer at the carbon atom (**): binding, guinea-pig cortex; for pIC50: 150 minutes at 25° C.
T2 construct: Cerebral cortices of male white guinea-pigs were thus used; from tissue; host or cells: cerebral cortex membranes of male white guinea-pigs
T2 sequence (H0VZC5 1-426): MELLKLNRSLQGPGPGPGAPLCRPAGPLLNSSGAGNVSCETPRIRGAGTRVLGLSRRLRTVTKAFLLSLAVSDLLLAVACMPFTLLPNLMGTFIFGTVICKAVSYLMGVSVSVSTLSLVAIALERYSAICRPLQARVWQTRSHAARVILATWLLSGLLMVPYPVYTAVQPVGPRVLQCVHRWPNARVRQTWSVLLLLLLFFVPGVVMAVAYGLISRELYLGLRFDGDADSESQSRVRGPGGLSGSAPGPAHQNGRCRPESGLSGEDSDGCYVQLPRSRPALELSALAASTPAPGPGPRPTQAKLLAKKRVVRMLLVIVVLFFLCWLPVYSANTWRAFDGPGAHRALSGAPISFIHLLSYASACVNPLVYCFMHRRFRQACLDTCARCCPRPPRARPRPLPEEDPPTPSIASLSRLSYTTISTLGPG
Method in brief: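 Male guinea-pig cerebral cortex membranes (about 300 mcg protein/ml) incubated with non-sulphated [3-H]-labelled CCK-8 tracer and compound 150 minutes at 25° C. Pellet radioactivity counted by liquid scintillation; nonspecific binding defined with 5.10^-6 M CCK-8.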

Ratio IC50 Binding cortex / IC50 (gastric mucous cells) [1]: 4.0 | CCK-B-antagonistic activity IC50 (II) [1]: 10 nM | IC50 order of magnitude, peripheral antigastrin activity ([1]; rabbit gastric mucous cells): nanomolar order of magnitude | IC50, inhibition of the increase of cytosolic calcium [1]: 10 nM | times more active than the corresponding diastereoisomer at the carbon atom (**) (central CCK-B receptor): about 5 times | inhibition of the binding of [N-methyl-N-leucine]CCK-8, result in words (central CCK-B receptor; guinea-pig cortical membranes): potent inhibitors | pIC50 (central CCK-B receptor; guinea-pig cortical membranes): 7.40
Compound: O=C(CC[C@@H](NC(=O)c1cc(Cl)cc(Cl)c1)C(=O)N1CCC2(CCCC2)CC1)N[C@H](Cc1c[nH]c2ccccc12)C(=O)O [Compound 21]
EFF. % VS CONTROL (LIGHT TIME TOTAL TIME) (mouse; 0.03 mg/kg IP): 11% | EFF. % VS CONTROL (LIGHT-DARK MOVEMENTS) (mouse; 0.03 mg/kg IP): 26% | EFF. % VS CONTROL (MOV. DARK % TOTAL MOV.) (mouse; 0.03 mg/kg IP): -6% | LIGHT TIME TOTAL TIME (mouse; 0.03 mg/kg IP): 28.9% | LIGHT-DARK MOVEMENTS (mouse; 0.03 mg/kg IP): 18.2 | MOV. DARK % TOTAL MOV. (mouse; 0.03 mg/kg IP): 62% | TOTAL MOVEMENTS (mouse; 0.03 mg/kg IP): 522 | EFF. % VS CONTROL (LIGHT TIME TOTAL TIME) (mouse; 0.3 mg/kg IP): 30% | EFF. % VS CONTROL (LIGHT-DARK MOVEMENTS) (mouse; 0.3 mg/kg IP): 37% | EFF. % VS CONTROL (MOV. DARK % TOTAL MOV.) (mouse; 0.3 mg/kg IP): -1.1% | LIGHT TIME TOTAL TIME (mouse; 0.3 mg/kg IP): 33.9% | LIGHT-DARK MOVEMENTS (mouse; 0.3 mg/kg IP): 19.8 | MOV. DARK % TOTAL MOV. (mouse; 0.3 mg/kg IP): 57% | TOTAL MOVEMENTS (mouse; 0.3 mg/kg IP): 499 | EFF. % VS CONTROL (LIGHT TIME TOTAL TIME) (mouse; 3.0 mg/kg IP): 24% | EFF. % VS CONTROL (LIGHT-DARK MOVEMENTS) (mouse; 3.0 mg/kg IP): 26% | EFF. % VS CONTROL (MOV. DARK % TOTAL MOV.) (mouse; 3.0 mg/kg IP): -9% | LIGHT TIME TOTAL TIME (mouse; 3.0 mg/kg IP): 32.4% | LIGHT-DARK MOVEMENTS (mouse; 3.0 mg/kg IP): 18.2 | MOV. DARK % TOTAL MOV. (mouse; 3.0 mg/kg IP): 60% | TOTAL MOVEMENTS (mouse; 3.0 mg/kg IP): 495 | anxiolytic activity, result in words (mouse): anxiolytic activity without sedative activity | increase in the number of light-dark movements in comparison with the controls (mouse): 20-30%

Ratio IC50 Binding cortex / IC50 (gastric mucous cells) [1]: 3.0 | CCK-B-antagonistic activity IC50 (II) [1]: 50 nM | IC50, inhibition of the increase of cytosolic calcium [1]: 50 nM | times more active than the corresponding diastereoisomer at the carbon atom (**) (central CCK-B receptor): about 5 times | pIC50 (central CCK-B receptor; guinea-pig cortical membranes): 6.82
Compound: O=C(CC[C@@H](NC(=O)c1cc(Cl)cc(Cl)c1)C(=O)N1CCC2(CCCC2)CC1)N[C@H](Cc1ccccc1)C(=O)O [Compound 9, (R,R)-1[(1-carboxy-2-phenylethyl)amino]-1 oxo-5-(8-azaspiro[4.5]decan-8-yl)-4-(3,5-dichloro-benzoylamino)-5-oxopentanoic acid]
EFF. % VS CONTROL (LIGHT TIME TOTAL TIME) (mouse; 0.1 mg/kg IP): 17% | EFF. % VS CONTROL (LIGHT-DARK MOVEMENTS) (mouse; 0.1 mg/kg IP): 6% | EFF. % VS CONTROL (MOV. DARK % TOTAL MOV.) (mouse; 0.1 mg/kg IP): 0% | LIGHT TIME TOTAL TIME (mouse; 0.1 mg/kg IP): 31.0% | LIGHT-DARK MOVEMENTS (mouse; 0.1 mg/kg IP): 16.1 | MOV. DARK % TOTAL MOV. (mouse; 0.1 mg/kg IP): 59% | TOTAL MOVEMENTS (mouse; 0.1 mg/kg IP): 505 | EFF. % VS CONTROL (LIGHT TIME TOTAL TIME) (mouse; 1.0 mg/kg IP): 36% | EFF. % VS CONTROL (LIGHT-DARK MOVEMENTS) (mouse; 1.0 mg/kg IP): 31% | EFF. % VS CONTROL (MOV. DARK % TOTAL MOV.) (mouse; 1.0 mg/kg IP): -7% | LIGHT TIME TOTAL TIME (mouse; 1.0 mg/kg IP): 36.1% | LIGHT-DARK MOVEMENTS (mouse; 1.0 mg/kg IP): 19.9 | MOV. DARK % TOTAL MOV. (mouse; 1.0 mg/kg IP): 55% | TOTAL MOVEMENTS (mouse; 1.0 mg/kg IP): 493 | EFF. % VS CONTROL (LIGHT TIME TOTAL TIME) (mouse; 10.0 mg/kg IP): 26% | EFF. % VS CONTROL (LIGHT-DARK MOVEMENTS) (mouse; 10.0 mg/kg IP): 16% | EFF. % VS CONTROL (MOV. DARK % TOTAL MOV.) (mouse; 10.0 mg/kg IP): -7% | LIGHT TIME TOTAL TIME (mouse; 10.0 mg/kg IP): 33.5% | LIGHT-DARK MOVEMENTS (mouse; 10.0 mg/kg IP): 17.7 | MOV. DARK % TOTAL MOV. (mouse; 10.0 mg/kg IP): 55% | TOTAL MOVEMENTS (mouse; 10.0 mg/kg IP): 503 | anxiolytic activity, result in words (mouse): anxiolytic activity without sedative activity | increase in the number of light-dark movements in comparison with the controls (mouse): 20-30%
